This is an account of results in ChEMBL document CHEMBL1151576, “Synthesis of cyclohexyl analogs of restricticin” (Bioorg Med Chem Lett, 1994).

For orientation: IC80 means the concentration at which the effect reaches the 80% level.

Converted amounts (≈) assume the structure as drawn.

Assay type in all cases: functional
Assay [1] relates to Aspergillus fumigatus. Kind of assay: In vitro antifungal activity against Aspergillus fumigatus CF1004 was determined at pH 7 for inoculum size of 1*10e4 cfu/ml by broth dilution method.
The subject of assay [2] is Aspergillus fumigatus. Kind of assay: In vitro antifungal activity against Aspergillus fumigatus CF1003 was determined at pH 7 for inoculum size of 1*10e4 cfu/ml by broth dilution method. On the technique in general: Dilution methods test growth across graded concentrations, often in twofold steps.
Assay [3] relates to Candida albicans. Kind of assay: In vitro antifungal activity against Candida albicans CY3003 was determined at pH 7 for inoculum size of 1*10e4 cfu/ml by broth dilution method.
For assay [4], the system named is Candida albicans. The experiment in a line: In vitro antifungal activity against Candida albicans CY1002 was determined at pH 7 for inoculum size of 1*10e4 cfu/ml by broth dilution method.
Assay [5] has as its system Candida albicans. Kind of assay: In vitro antifungal activity against Candida albicans CY1005 was determined at pH 7 for inoculum size of 1*10e4 cfu/ml by broth dilution method.
The subject of assay [6] is Cryptococcus neoformans. Kind of assay: In vitro antifungal activity against Cryptococcus neoformans CY1057 was determined at pH 7 for inoculum size of 1*10e4 cfu/ml by broth dilution method.
Assay [7] concerns Cryptococcus neoformans. Kind of assay: In vitro antifungal activity against Cryptococcus neoformans CY1059 was determined at pH 7 for inoculum size of 1*10e4 cfu/ml by broth dilution method.

With `CCc1ccc(CC[C@@H]2CCC(C)(C)[C@H](OC)[C@H]2Cn2ccnc2)cc1`, the IC80 in the assay with Aspergillus fumigatus [1] was 0.19 µg/mL (≈ 0.536 µM); with Aspergillus fumigatus [2] it was 0.37 µg/mL (≈ 1.04 µM); in the assay on Candida albicans [3], 0.0025 µg/mL (≈ 0.00705 µM); in the assay with Candida albicans [4], 0.059 µg/mL (≈ 0.166 µM); with Candida albicans [5], 0.012 µg/mL (≈ 0.0338 µM); in the assay with Cryptococcus neoformans [6] it was 0.12 µg/mL (≈ 0.338 µM). The concentration for an effect of 80% (IC80) in the assay on Cryptococcus neoformans [7] is 0.14 µg/mL (≈ 0.395 µM).
Consider `CCCCCCC/C=C/C[C@@H]1OC[C@H](C)[C@H](OC)[C@H]1COC(=O)CN`, for which the IC80 is 0.52 µg/mL (≈ 1.46 µM) in the assay on Aspergillus fumigatus [1]; 0.73 µg/mL (≈ 2.05 µM) with Aspergillus fumigatus [2]; 0.97 µg/mL (≈ 2.73 µM) in the assay with Candida albicans [3]; 1.8 µg/mL (≈ 5.06 µM) in the assay on Candida albicans [4]; 1.58 µg/mL (≈ 4.44 µM) in the assay on Candida albicans [5]; 2.19 µg/mL (≈ 6.16 µM) with Cryptococcus neoformans [6]. The compound further displayed an 80% effect concentration (IC80) with Cryptococcus neoformans [7] of 3.2 µg/mL (≈ 9 µM).
In the case of `CCc1ccc(CC[C@@H]2CCC(C)(C)[C@H](OC)[C@H]2Cn2cncn2)cc1`, the concentration for an effect of 80% (IC80) with Aspergillus fumigatus [1] was above 200 µg/mL; in the assay with Aspergillus fumigatus [2], above 200 µg/mL; in the assay with Candida albicans [3], 0.012 µg/mL (≈ 0.0338 µM); in the assay with Candida albicans [4], 0.098 µg/mL (≈ 0.276 µM); in the assay with Candida albicans [5] it was 0.042 µg/mL (≈ 0.118 µM); with Cryptococcus neoformans [6], 0.82 µg/mL (≈ 2.31 µM). The same compound displayed an IC80 in the assay on Cryptococcus neoformans [7] of 0.37 µg/mL (≈ 1.04 µM).
Take `OC(Cn1cncn1)(Cn1cncn1)c1ccc(F)cc1F` [FLUCONAZOLE]: the 80% effect concentration (IC80) in the assay with Aspergillus fumigatus [1] was found to be 180 µg/mL (≈ 588 µM); in the assay with Aspergillus fumigatus [2] it was 200 µg/mL (≈ 653 µM); with Candida albicans [3], 1.1 µg/mL (≈ 3.59 µM); in the assay on Candida albicans [4], 2.6 µg/mL (≈ 8.49 µM); with Candida albicans [5], 2.8 µg/mL (≈ 9.14 µM); in the assay on Cryptococcus neoformans [6], 3.8 µg/mL (≈ 12.4 µM). Besides, the 80% effect level in the assay on Cryptococcus neoformans [7] (IC80) was put at 11 µg/mL (≈ 35.9 µM).
`CCC(C)n1ncn(-c2ccc(N3CCN(c4ccc(OC[C@H]5CO[C@](Cn6cncn6)(c6ccc(Cl)cc6Cl)O5)cc4)CC3)cc2)c1=O` (stereo not given in full) [ITRACONAZOLE]: the 80% effect concentration (IC80) in the assay on Aspergillus fumigatus [1] is below 0.0004 µg/mL; in the assay on Aspergillus fumigatus [2] it was 0.02 µg/mL (≈ 0.0283 µM); in the assay on Candida albicans [3], 0.0012 µg/mL (≈ 0.0017 µM); with Candida albicans [4], 0.03 µg/mL (≈ 0.0425 µM); in the assay on Candida albicans [5], 0.0056 µg/mL (≈ 0.00794 µM); in the assay on Cryptococcus neoformans [6], 0.022 µg/mL (≈ 0.0312 µM). This compound also came in with a concentration for an effect of 80% (IC80) in the assay on Cryptococcus neoformans [7] of 0.046 µg/mL (≈ 0.0652 µM).
